The text below walks through data of US12168055B2, “Sonosensitization” (priority 2019, dated 2024).

Series [1] concerns normal brain tissue. To be noted: cited from earlier work.
Series [2] concerns SAS cells. The conditions noted are these: cited from earlier work; for cell viability: about 2 W/cm^2, 2 min.
The subject of series [3] is normal control cells. The conditions noted are these: 5-ALA 1 mM + ultrasound 3 MHz, 2 W/cm^2, 20% duty cycle, 3 min; cited from earlier work.
The subject of series [4] is C6 glioma tumor cells.
Method: Male Wistar rats received injections of 4×10^5 C6 glioma tumor cells by injection into the right cortex of the brain. On day 7 after injection, rats were administered 5-aminolevulinic acid (20 mg/kg or 0 mg/kg, Levulan®, DUSA Pharmaceuticals, Wilmington, MA) orally, three hours prior to treatment.
Rats were anesthetized and set inside an MRI-guided focused ultrasound system (“FUS”, RK300, FUS Instruments, Toronto, Canada), having a 25 mm diameter spherically curved transducer (resonant frequency f0=1.06 MHz, focal number=0.8). The FUS, with rat, was then inserted into a 7 Telsa MRI system (Brucker BioSpec 70/30 USR, Bruker Ltd., Milton, Ontario, Canada). The MRI was used to precisely aim the FUS device at the brain tumor. Rats were then sonicated at one of four spatial peak temporal average intensities (ISPTA) (6.9 W/cm^2, 13.8 W/cm^2, 27.6 W/cm^2, or 55.2 W/cm^2) for 20 minutes. One group (N=6) was cyclicly sonicated at 27.6 W/cm^2 for 20 minutes, divided into 16 sonication periods of 85 seconds, separated by rest periods of 60 seconds (the multiple point, or “MP” group). In the MP group, 16 individual points within the tumor were sonicated. Control groups (N=5 each) received 5-ALA without FUS treatment, FUS treatment without 5-ALA, or neither 5-ALA nor FUS. Tumor temperature was monitored during sonication using magnetic resonance thermometry. Normalized tumor volume was measured by MRI on days 7, 14, 21, 28, and 35 following injection.
Series [5] relates to C6 glioma cells. To be noted: 5-ALA 60 mg/kg or Radachlorin 40 mg/kg + ultrasound 1.0 MHz, 2.65 W/cm^2, 20 min; vs control groups; cited from earlier work.
Series [6] deals with U87 and U251 glioma cells, and U251^Oct-3/4 glioma stem-like cells. The conditions noted are these: 5-ALA 1 mM + ultrasound 3 MHz, 2 W/cm^2, 20% duty cycle, 3 min; cited from earlier work.
The test system of series [7] is rat osteosarcoma UMR-106 cells. The conditions noted are these: 5-ALA 250 mg/kg i.v. 8 h before ultrasound 1.0 MHz, 2.5 W/cm^2, 8 min daily for 10 days; vs all other groups; cited from earlier work.
Series [8] deals with human U87 glioma cells or U251^Oct-3/4 glioma stem-like cells. To be noted: 5-ALA 100 mg/kg + ultrasound 2.2 MHz, 0.5 or 2.0 W/cm^2, 3 min, weekly for 3 weeks; cited from earlier work.
Series [9] concerns C6 rat glioma cells. To be noted: 5-ALA 100 mg/kg orally 3 h before ultrasound 1.04 MHz, 10 W/cm^2, 5 min; vs 5-ALA or ultrasound alone; cited from earlier work.
Series [10] relates to human THP-1 monocytes (induced to become macrophages and foam cells). To be noted: berberine 30 μg/mL, ultrasound 1.0 MHz, 0.4 W/cm^2, 10 min; cited from earlier work.
For series [11], the system named is mammary tumors. The conditions noted are these: porfimer sodium 2.5 mg/kg or higher i.v. 24 h before ultrasound 1.92 MHz, 15 min, 3 W/cm^2 or higher; cited from earlier work.

Where two headings read alike, the source gives them in different places.

Consider `O=C([O-])c1c(Cl)c(Cl)c(Cl)c(Cl)c1-c1c2cc(I)c(=O)c(I)c-2oc2c(I)c([O-])c(I)cc12.[Na+].[Na+]` [Rose Bengal], for which the rats displaying lesions in [1] (Rose Bengal 10 mg/kg, ultrasound 110 W/cm^2, 3 min) is reported as 5/5; in series [1] (Rose Bengal 10 mg/kg, ultrasound 110 W/cm^2, 5 min), 6/7; in series [1] (Rose Bengal 50 mg/kg, ultrasound 110 W/cm^2, 3 min), 5/5; in [1] (Rose Bengal 50 mg/kg, ultrasound 110 W/cm^2, 5 min) it was 6/6. Further, the “lesions in normal brain tissue” value in series [1] (ultrasound 25 W/cm^2, with or without Rose Bengal) was “no lesions”.

Turning to `NCC(=O)CCC(=O)O` [5-ALA, 5-aminolevulinic acid], the “SAS cell apoptosis, intracellular reactive oxygen species, and lipid peroxidation” value in series [2] (10 μg/mL 5-ALA added to ultrasound, vs ultrasound alone) is “significantly increased these effects”. Also, the cell viability was 88% in series [2] (5-ALA 1 μg/mL 4 h before ultrasound 1.05 MHz), 75% in series [2] (5-ALA 10 μg/mL 4 h before ultrasound 1.05 MHz) and 62% in series [2] (5-ALA 50 μg/mL 4 h before ultrasound 1.05 MHz). The “cytotoxicity to normal control cells” value in series [3] is “not to normal control cells”. For the same compound, the “survival, multiple point (MP) group” value in [4] (5-ALA 20 mg/kg + FUS 27.6 W/cm^2, 16 points, 16 periods of 85 s with 60 s rest) is “greatest increase in survival”. In [4] (5-ALA 20 mg/kg orally 3 h before FUS (1.06 MHz, 20 min), all experimental groups), the survival result was “improved survival”. For the same compound, in [4] (5-ALA 20 mg/kg orally 3 h before FUS (1.06 MHz, 20 min), all experimental groups vs control animals), the tumor growth entry is “inhibited tumor growth”. The tissue damage result in series [4] (5-ALA 20 mg/kg, sonication at 55.2 W/cm^2) is recorded as “suffered tissue damage”. Moreover, the normalized tumor volume in series [4] (5-ALA only group (20 mg/kg orally), no FUS) is recorded as 24+6 mm^3. In addition, the “subjects surviving past 60 days” value in series [4] (MP group: 5-ALA 20 mg/kg + FUS 27.6 W/cm^2 at 16 points) is on record as 50%. The figures for the tumor size result in [5] and in series [9] were “significantly smaller in size” and “significantly smaller tumors”, respectively. In [6], the “cytotoxicity to tumor cells” value is listed as “substantially cytotoxic to all tumor cells tested”. Moreover, the tumor volumes result in series [7] is given as “significantly smaller than all other groups”. For the same compound, the “survival of treated mice” value in [8] is recorded as “significantly improved the survival”.

As for `COc1ccc2cc3[n+](cc2c1OC)CCc1cc2c(cc1-3)OCO2` [berberine], in series [10], the autophagy in macrophages result was “induced autophagy in macrophages” and the cholesterol efflux entry is on record as “increased cholesterol efflux”.

For the compound porfimer sodium, in [11], the tumor growth entry is “effectively inhibited tumor growth”.

In general, cell viability refers to the share of living cells, or the viability signal relative to a control.
